Entries after “also recorded” stand apart in the source; their conditions may differ. Structures can show the parent of a compound that is named as a salt. Where two headings read alike, the source gives them in different places. Where a SMILES comes first, the peptide text is derived from it. The star is where a group is joined. Cbz = O=C(OCc1ccccc1)*
Key:
RGC [1] = details: compared with MK-801; cited from earlier work
[2] = tested on: astrocyte cultures (NADPH oxidase); details: cited from earlier work
RGCs [3] = details: in vitro and in vivo; cited from earlier work
RGC [4] = assay: Chronic ocular hypertensive (OHT) experimental glaucoma model, in vivo imaging with annexin V and PI; design: species or system rat
Text: For the experimental glaucoma studies, the inventors used an established model of ocular hypertension. 18 rats underwent surgery to elevate intraocular pressure (IOP) by injection of hypertonic saline solution (1.8 M) into two episcleral veins as previously described (Cordeiro et al., 2004). Contralateral, unoperated eyes acted as controls. Animals were imaged at 0, 3, 8, and 16 weeks, with at least 3 animals at each time point being killed for histology immediately after imaging. A subgroup of animals (n=4) was treated at the time of surgery with the NMDA antagonist MK801 (0.6 nmol; Tocris Cookson Ltd, Bristol UK). These animals were imaged at 3 weeks and then killed for histology.
(§1) Using a method the inventors have recently described, rats were given 2.5 μg of intravitreal Alexa Fluor 488 labelled annexin V in 5 μl PBS for identification of RGC apoptosis, 2 hours before in vivo imaging (Cordeiro et al., 2004). For mice, the inventors used 1 μl of a 0.25 mg/ml solution of IR-labelled annexin (Annexin-IR) in intravitreal injections as previously described (Schmitz-Valckenberg et al., 2008).
(§2) In order to identify necrotic RGCs in rats (2 μl) and mice (1 μl), propidium iodide (PI; 0.4 mg/ml, 1% solution, Sigma-Aldrich, Dorset UK) was administered intravitreally at the same time as annexin, 2 hours before in vivo imaging. PI intercalates into nucleic acids, binding to double-stranded DNA, but only crosses the plasma membrane of non-viable cells. Cells that have lost membrane integrity are thus identified by fluorescent red PI staining throughout the nuclei.
All rats had in vivo retinal imaging performed at regular and set intervals after experimental treatment, using a prototype Zeiss confocal scanning laser ophthalmoscope (cSLO), as previously described (Cordeiro et al., 2004; Maass et al., 2007). Imaging was performed under general anaesthesia with animals being held in a stereotaxic frame, with their pupils dilated. Different lasers and filters were used for the different fluorochromes: for excitation of Alexa Fluor 488 an Argon laser wavelength of 488 nm, and a solid state photodetector with a 521 nm cut-off filter and a 550 nm cut-on filter was employed; for DiI, a diode-pumped crystal green laser with a wavelength of 532 nm was used with 550 nm cut-off and 600 nm cut-on filters; the same laser was used for PI visualization but with a 650 nm cut-off. […] Colour and raw scatter plots of annexin and PI fluorescence intensity were constructed, so data could be analysed in a similar manner to data derived by in vitro FACS analysis. […] Fluorescence intensity counts derived from raw scatter plots were used to quantify each phase of cell death. […]

RGC [5] = assay: Abeta (Aβ25-35)-induced RGC death model, in vivo cSLO imaging with annexin V and PI; design: species or system mouse
Experimental: (§3) For the analysis of Abeta, freshly made Aβ25-35 (Sigma-Aldrich, 3.40 nmol) (Dahlgren et al., 2002) was intravitreally injected into C57 mice (n=10) (Maass et al., 2007). Animals were imaged at 72 hours. For AD 3× Tg-AD studies, 4 eyes (all female, 14 months) with 2 eyes from aged control mice (PS1KI; female, 18 months) were assessed. 3× Tg-AD and control PS1KI mice were obtained from a colony (maintained at CeSI) established after a generous gift of Frank Laferla. Intravitreal phorbol myristate acetate (1 μl of 10 μg/ml) was administered to left eyes of 3× Tg-AD animals, at the same time as annexin V and PI.
as §1, §2
(§4) In mice, the inventors used instrumentation as previously described (Maass et al., 2007; Schmitz-Valckenberg et al., 2008), with a modified cSLO (Heidelberg Retina Angiograph 2, Heidelberg Engineering, Dossenheim, Germany) and a wide-field lens (55°). The fluorescein angiogram (488 nm argon laser) and indocyanine green (IR 790 nm diode laser) settings were used to detect PI and IR-labelled annexin respectively. The same software was used to analyse video sequenced images as described before with whole retinal monochrome images from each eye recorded and colourised. Dual-color images were produced by combining each of the grayscale images from the cSLO into the red (PI), and green (IR annexin) of an RGB color image.
The left eye of each animal was treated with intravitreal 0.40 nmol MK801 at the same time as Abeta. Wide-angle retinal images were recorded 2 hours following intravitreal annexin (green) and PI (red), as previously described (Guo at al., 2006).
To assess the relative levels of early apoptosis, late apoptosis and necrosis the inventors studied the co-localization of PI and annexin V using ImageJ software with the Intensity Correlation Analysis plugin (Li et al., 2004). Colour and raw scatter plots of annexin and PI fluorescence intensity were constructed from plugin-generated data for each animal. Corresponding scatter plots (blue) from the eyes shown in FIG. 8a-b are illustrated in FIG. 8c-d. The data were analysed in a similar manner to data derived by in vitro FACS analysis, with four quadrants (midlines shaded in colour overlay as red, green, blue and yellow) enabling separation of the different phases of cell death as annexin V positive (early apoptosis, green), annexin V and PI double positive (late apoptosis, yellow) and PI positive (necrosis, red). Thresholds were set automatically by the plugin for each analysis of each eye. The inventors then used fluorescence intensity counts from the raw scatter plots to quantify each phase of cell death.
To further assess the analytical power of the technique, the inventors next investigated whether the level of oxidative stress in Abeta-treated eyes influenced the phase of cell death and whether this was possible to visualize in vivo. […] FIG. 8f-g are taken from the right untreated (F) and left PMA-treated (G) eye of an animal treated 72 hours previously with 3.40 nmol Aβ25-35. […]

Bad = details: in vivo; cited from earlier work
NMDA receptors = details: cited from earlier work
RGC [6] = details: in comparison to the controls; cited from earlier work
retinal neurons = details: in vitro; cited from earlier work
RGCs [7] = details: cited from earlier work
RGC [8] = assay: Alzheimer Triple Transgenic (3× Tg-AD) model and aged PS1KI control, retinal cell death imaging; type: in vivo, mouse
Experimental: as §3, §1, §2, §4
However, in these studies aged (27 month) wild type congeners were not assessed.
The inventors next investigated whether oxidative stress in AD eyes influenced the phase of cell death and whether this could be visualized in vivo. As intraneuronal Aβ accumulation and extracellular Abeta plaques are characteristics of this model (LaFerla et al., 2007), the inventors hypothesised that the addition of PMA would reveal whether the level of Abeta in this transgenic mouse is sufficient to modulate the retinal response in vivo (Abramov et al., 2005). […]

[9] = tested on: ROS production in the retina; assay: ROS production in mouse retina in vivo visualized with DHE; details: intravitreal; vs vehicle/control eye
Experimental: FIG. 12B. The effects of rotenone on ROS production in mouse retina in vivo. ROS production visualized with DHE (dihydroethidium). DHE is a non-fluorescent agent, reacting with ROS intracellularly to produce a fluorescent oxidative product which can be detected. Rotenone (50 uM, 1 ul) was intravitreally injected into the one eye (C57) and the same volume of vehicle (saline) injected into the contralateral eye. DHE (1 ul) was then injected intravitreally and both eyes imaged to detect ROS production using a SLO machine.
FIG. 12C. The effects of PMA in producing ROS in mouse retina in vivo. PMA (50 ug/ml, 1 ul) was injected intravitreally into the one eye and saline (1 ul) into the contralateral eye. DHE (1 ul) was simultaneously injected for detecting ROS production.
FIG. 12D. The effects of Aβ25-35 on ROS production in vivo. DHE was intravitreally injected into the both eyes of a mouse to detect ROS production.

[10] = in vivo; cited from earlier work
RGC [11] = details: in vitro and in vivo; cited from earlier work
neuronal cells = details: in vitro; cited from earlier work
RGC [12] = details: in vivo; cited from earlier work
[13] = phase III, patients with OAG; cited from earlier work
[14] = tested on: neurons within the contra-lateral Lateral geniculate Body; details: in vivo; cited from earlier work
RGC [15] = details: rat, in vivo; cited from earlier work
RGCs [16] = details: rat; cited from earlier work
[17] = 3 weeks after elevated IOP induction
[18] = Abeta + MK801 vs Abeta alone, 72 h

O=[N+]([O-])c1cc2nc(O)c(O)nc2cc1[N+](=O)[O-] [DNQX]
RGC survival (RGC [1]): greater enhancement

c1ccc2c(c1)[I+]c1ccccc1-2 [DPI]
PMA-induced lucigenin response [2]: blocked

C[C@]12N[C@H](Cc3ccccc31)c1ccccc12 [MK801, (+)-5-methyl-10,11-dihydro-5H-dibenzo[a,d]cyclohepten-5,10-imine maleate]
RGC protection (RGCs [3]): protect RGCs | late phase apoptosis (Anx+/PI+) (RGC [4]; [17]): significant reduction; also recorded: significant decrease | levels of necrosis (PI+) (RGC [4]; [17]): significant reduction; also recorded: significant decrease | number of dying cells (Total cell death markers) (RGC [4]; 3 weeks after elevated IOP induction, p<0.05): significant reduction | numbers of annexin V and PI positive (apoptotic and necrotic) cells (RGC [4]; MK801 0.6 nmol at the time of surgery, 3 weeks, vs untreated OHT): significantly reduced | number of annexin V and PI positive cells (RGC [5]; 72 hours after intravitreal 3.40 nmol Aβ25-35, MK801 0.40 nmol intravitreal at the same time as Abeta, vs Abeta-only fellow eye): reduces | necrosis (PI+) (RGC [5]; [18]): clearly reduced; also recorded: reducing | number of cells in late phase apoptosis (Anx+/PI+) (RGC [5]; [18]): clearly reduced; also recorded: reducing | number of early phase apoptotic cells (Anx+) (RGC [5]; [18]): small increase | overall levels of cell death (Total) (RGC [5]; Abeta + MK801 vs Abeta alone, 72 h, co-localization scatter plot quantification): clearly reduced | Bad expression (Bad): decreasing | neurotoxicity (NMDA receptors): neurotoxic effect | number of apoptotic RGCs (RGC [6]): reduction

COc1ccc2[nH]cc(CCNC(C)=O)c2c1 [Melatonin]
protection of retinal neurons (retinal neurons): protected | effect on RGCs in vivo (RGCs [7]): neuroprotective effect

CCCCCCCCCCCCCC(=O)O[C@@H]1[C@@H](C)[C@@]2(O)[C@@H](C=C(CO)C[C@]3(O)C(=O)C(C)=C[C@@H]23)[C@@H]2C(C)(C)[C@]12OC(C)=O [PMA, phorbol myristate acetate]
ROS generation (lucigenin) ([2]; 1 μg/ml): increase | overall levels of cell death (Total) (RGC [5]; Abeta + PMA vs Abeta, all treated animals, p<0.05): significantly (p<0.05) increases | number of cells in the early phase of apoptosis (Anx+) (RGC [5]; Abeta + PMA vs Abeta, p<0.05): significantly (p<0.05) increased; also recorded: significant (p<0.05) increase | annexin V (and PI) positive cells (RGC [5]; PMA 0.016 nmol with annexin V and PI, 72 hours after 3.40 nmol Aβ25-35, imaging 2 hours later, vs vehicle eye): increased | late apoptosis (Anx+/PI+) (RGC [8]; 3× Tg-AD model, p<0.05): decreased | increase in early phase apoptosis (Anx+) (RGC [8]; 14-month 3× Tg-AD, 2 hours after intravitreal PMA with annexin and PI): 61.4% | increase in early phase apoptosis (Anx+) (RGC [8]; aged control (PS1KI, 18 month), 2 hours after intravitreal PMA): 30.3% | necrosis (RGC [8]; control eyes, p<0.05): decreased | ROS production in the retina (DHE fluorescence) [9]: significantly higher levels of ROS production

Nc1nc2ccc(OC(F)(F)F)cc2s1 [Riluzole]
ERG wave recovery [10]: enhance | pressure-induced apoptosis [10]: prevent or decrease

CC(C)C[C@@H](C=O)NC(=O)[C@H](CC(C)C)NC(=O)[C@@H](NC(=O)OCc1ccccc1)C(C)C [Z-VLL-CHO, N-benzyloxycarbonyl-Val-Leu-leucinal] (Cbz-Val-Leu-Leu-aldehyde)
RGC apoptosis (RGC [11]): reduce

CC12CC3CC(C)(C1)CC(N)(C3)C2 [memantine, 1-amino-3,5-dimethyl-adamantane]
NMDA-induced neuronal death (neuronal cells): reduction | RGC loss (RGC [12]): decreased | primary end point [13]: ineffective | shrinkage of neurons (LGB layers 1, 4, and 6) [14]: reduction

Geranylgeranylacetone
RGC loss (RGC [15]): marked reduction | expression of HSP-72 (RGC [15]): increase

glatiramer acetate [Cop-1]
activity on RGCs in vivo (RGCs [16]): neuroprotective activity

superoxide dismutase
PMA-induced lucigenin response [2]: reversed
